Experimental data as given in the supplement of paper PMC11061612.

How the values were obtained:
Experiment in all cases: combination Emax (second highest fraction inhibited in the dose matrix, 72 h); higher = more inhibition; extreme values may be limits of the assay
5637 (Bladder Carcinoma) = system: 5637 (Bladder Carcinoma)
Summary of the method: (§1)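 Cell lines in DMEM/F12 or RPMI with 10% FBS were plated in 1536-well plates, held 24 hours at 37°C, 5% CO2, then given two-drug dose matrices for 72 hours (DMSO typically 0.2%). Viability was read by CellTiter-Glo 2.0 luminescence and scaled as inhibition from 0 (vehicle wells) to 1 (blank wells). Combination Emax is the second-highest inhibition in the matrix; Bliss excess is observed combination effect minus expected EA + EB − EA·EB, EA and EB being single-agent effects.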

COLO-792 (Melanoma) = system: COLO-792 (Melanoma)
Summary of the method: as §1

[1] = system: DMS-53 (Small Cell Lung Carcinoma)
Summary of the method: as §1

EB2 (Burkitt's Lymphoma) = system: EB2 (Burkitt's Lymphoma)
Summary of the method: as §1

[2] = system: EPLC-272H (Other Solid Carcinomas)
Summary of the method: as §1

[3] = system: ESO26 (Esophageal Adenocarcinoma)
Summary of the method: as §1

EW-16 (Ewing's Sarcoma) = system: EW-16 (Ewing's Sarcoma)
Summary of the method: as §1

EW-7 (Ewing's Sarcoma) = system: EW-7 (Ewing's Sarcoma)
Summary of the method: as §1

[4] = system: GA-10 (Burkitt's Lymphoma)
Summary of the method: as §1

[5] = system: HCC1395 (Breast Carcinoma)
Summary of the method: as §1

[6] = system: HCC1428 (Breast Carcinoma)
Summary of the method: as §1

[7] = system: HT55 (Colorectal Carcinoma)
Summary of the method: as §1

KP-N-YN (Neuroblastoma) = system: KP-N-YN (Neuroblastoma)
Summary of the method: as §1

[8] = system: LS-411N (Colorectal Carcinoma)
Summary of the method: as §1

[9] = system: LU-165 (Small Cell Lung Carcinoma)
Summary of the method: as §1

[10] = system: MDA-MB-436 (Breast Carcinoma)
Summary of the method: as §1

[11] = system: MHH-ES-1 (Ewing's Sarcoma)
Summary of the method: as §1

PEO1 (Ovarian Carcinoma) = system: PEO1 (Ovarian Carcinoma)
Summary of the method: as §1

RH-41 (Rhabdomyosarcoma) = system: RH-41 (Rhabdomyosarcoma)
Summary of the method: as §1

[12] = system: SW620 (Colorectal Carcinoma)
Summary of the method: as §1

| SMILES | combination Emax (5637 (Bladder Carcinoma)) | combination Emax (COLO-792 (Melanoma)) | combination Emax [1] | combination Emax (EB2 (Burkitt's Lymphoma)) | combination Emax [2] | combination Emax [3] | combination Emax (EW-16 (Ewing's Sarcoma)) | combination Emax (EW-7 (Ewing's Sarcoma)) | combination Emax [4] | combination Emax [5] | combination Emax [6] | combination Emax [7] | combination Emax (KP-N-YN (Neuroblastoma)) | combination Emax [8] | combination Emax [9] | combination Emax [10] | combination Emax [11] | combination Emax (PEO1 (Ovarian Carcinoma)) | combination Emax (RH-41 (Rhabdomyosarcoma)) | combination Emax [12] |
| --- | --- | --- | --- | --- | --- | --- | --- | --- | --- | --- | --- | --- | --- | --- | --- | --- | --- | --- | --- | --- |
| COc1nnc2ccc(N3CCC(c4ccc(OCCN5CCN(C)C(=O)[C@H]5C)cc4)CC3)nn12 [AZD5153] + CCN(CCO)CCCOc1ccc2c(Nc3cc(CC(=O)Nc4cccc(F)c4)[nH]n3)ncnc2c1 [AZD2811] (first compound max 1 µM, 7x7, partner max 1 µM) | 0.68 | 0.563 | 0.593 | 0.589 | 0.748 | 0.752 | 0.553 | 0.444 | 0.74 | 0.398 | 0.701 | 0.619 | 0.616 | 0.739 | 0.458 | 0.287 | 0.762 | 0.435 | 0.888 | 0.597 |
| NC1(C(=O)N[C@@H](CCO)c2ccc(Cl)cc2)CCN(c2ncnc3[nH]ccc23)CC1 [Capivasertib] + CCN(CCO)CCCOc1ccc2c(Nc3cc(CC(=O)Nc4cccc(F)c4)[nH]n3)ncnc2c1 [AZD2811] (first compound max 10 µM, 7x7, partner max 1 µM) | 0.572 | 0.661 | 0.238 | 0.653 | 0.708 | 0.52 | 0.634 | 0.885 | 0.918 | 0.455 | 0.465 | 0.576 | 0.608 | 0.557 | 0.47 | 0.264 | 0.665 | 0.418 | 0.943 | 0.328 |
| COc1cccc2c1C(=O)c1c(O)c3c(c(O)c1C2=O)C[C@@](O)(C(=O)CO)C[C@@H]3O[C@H]1C[C@H](N)[C@H](O)[C@H](C)O1 [Doxorubicin] + Cc1cc2ncnn2cc1Nc1ncc2c(n1)n(C1CCOCC1)c(=O)n2C [AZD7648] (first compound max 1 µM, 7x7, partner max 10 µM) | 0.546 | 0.445 | 0.455 | 0.979 | 0.539 | 0.801 | 0.913 | 0.889 | 0.963 | 0.401 | 0.168 | 0.678 | 0.698 | 0.508 | 0.337 | 0.504 | 0.916 | 0.419 | 0.95 | 0.787 |
| Cc1c2c(nn1C)CSCc1cc(n(C)n1)CSc1cc(c3ccccc3c1)OCCCc1c(C(=O)O)n(C)c3c-2c(Cl)ccc13 [AZD5991] + C=CCn1c(=O)c2cnc(Nc3ccc(N4CCN(C)CC4)cc3)nc2n1-c1cccc(C(C)(C)O)n1 [AZD1775] (first compound max 1 µM, partner max 1 µM) | 0.954 | 0.988 | 0.684 | 0.769 | 0.971 | 0.683 | 0.507 | 0.919 | 1 | 0.88 | 0.97 | 0.715 | 0.912 | 0.741 | 0.441 | 0.289 | 0.87 | 0.397 | 1 | 0.65 |
| Cc1c2c(nn1C)CSCc1cc(n(C)n1)CSc1cc(c3ccccc3c1)OCCCc1c(C(=O)O)n(C)c3c-2c(Cl)ccc13 [AZD5991] + Cn1cnc2c(F)c(Nc3ccc(Br)cc3Cl)c(C(=O)NOCCO)cc21 [Selumetinib] (first compound max 1 µM, 7x7, partner max 3 µM) | 0.37 | 1 | 0.618 | 0.212 | 0.94 | 0.274 | 0.258 | 0.271 | 0.751 | 0.56 | 0.977 | 0.692 | 0.204 | 0.826 | 0.161 | 0.152 | 0.672 | 0.25 | 1 | 0.643 |
| Cn1cnc2c(F)c(Nc3ccc(Br)cc3Cl)c(C(=O)NOCCO)cc21 [Selumetinib] + CC(C)n1c(=O)n(C)c2cnc3cc(F)c(-c4ccc(OCCCN5CCCCC5)nc4)cc3c21 [AZD1390] (first compound max 10 µM, 7x7, partner max 0.3 µM) | 0.236 | 0.498 | 0.132 | 0.0739 | 0.651 | 0.115 | 0.134 | 0.15 | 0.165 | 0.192 | 0.169 | 0.669 | 0.398 | 0.666 | 0.213 | 0.259 | 0.126 | 0.266 | 0.131 | 0.615 |
| CN(C)CCCOc1ccc(-c2ccc3ncc4c(c3c2)n(C2CCOCC2)c(=O)n4C)cn1 [AZD0156] + C=CCn1c(=O)c2cnc(Nc3ccc(N4CCN(C)CC4)cc3)nc2n1-c1cccc(C(C)(C)O)n1 [AZD1775] (first compound max 1 µM, partner max 1 µM) | 0.745 | 0.538 | 0.148 | 0.841 | 0.771 | 0.458 | 0.307 | 0.884 | 0.988 | 0.682 | 0.125 | 0.407 | 0.95 | 0.641 | 0.38 | 0.195 | 0.671 | 0.341 | 0.948 | 0.495 |
